The record followed here is BindingDB's records for doi:10.1016/j.chembiol.2016.12.011 (Saarland University, 2017).

pKd: −log10 of the molar value.

The experiment concerns the target Ezrin (Homo sapiens, UniProt P15311). The experiment in a line: SPR Assay. The following applies: pH 5.5; 25 °C. How it is done: Recombinant ezrin (Hypermol) was diluted to […] in sodium acetate buffer (pH 5.5, 10 mM) immobilized for 350 s on a CM5 Sensor Chip (Biacore) by standard amine coupling to yield around 10,000 response units. The reference flow cell was prepared exactly as the ligand flow cell, although sodium acetate buffer only (pH 5.5, 10 mM) was used instead of recombinant ezrin. Binding interactions were monitored at 25 °C with a flow rate of […] in HBSEP/1% DMSO as running buffer. Disorazole A was injected at […]. Disorazole Z was injected at […]. The contact time for each compound was 120 s and the dissociation time 500 s. To rule out non-specific binding, a negative control protein was immobilized on a CM5 Sensor Chip (Biacore) by standard amine coupling: BSA (Sigma) was diluted to […] in sodium acetate buffer (pH 4.5, 10 mM) and immobilized for 90 s to yield around 5,000 response units. The reference flow cell was prepared with sodium acetate buffer (pH 4.5).

By pKd is commonly meant −log10 of the Kd, conventionally taken in molar units. A higher pKd goes with a low Kd.

Chain of Ezrin (P15311 whole entry): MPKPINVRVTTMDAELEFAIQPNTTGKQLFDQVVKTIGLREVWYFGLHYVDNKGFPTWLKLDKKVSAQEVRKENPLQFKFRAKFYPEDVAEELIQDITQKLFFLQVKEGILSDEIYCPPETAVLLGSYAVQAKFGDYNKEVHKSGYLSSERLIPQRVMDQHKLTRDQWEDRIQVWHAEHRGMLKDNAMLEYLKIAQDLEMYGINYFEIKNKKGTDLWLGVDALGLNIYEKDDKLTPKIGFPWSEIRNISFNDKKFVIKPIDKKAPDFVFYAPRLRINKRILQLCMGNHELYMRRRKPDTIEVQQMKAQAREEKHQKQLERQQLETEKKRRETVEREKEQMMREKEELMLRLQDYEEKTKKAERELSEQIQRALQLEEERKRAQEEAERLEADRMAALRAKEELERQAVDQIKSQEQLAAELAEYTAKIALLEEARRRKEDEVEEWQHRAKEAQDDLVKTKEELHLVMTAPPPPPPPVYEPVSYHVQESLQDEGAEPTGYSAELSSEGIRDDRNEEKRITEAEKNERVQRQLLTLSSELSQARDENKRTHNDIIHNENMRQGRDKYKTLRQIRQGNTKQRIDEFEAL

`C/C=C/[C@H](O)C(C)(C)[C@@H]1CCC[C@H]2O[C@H]2CC[C@@H]2O[C@@H]2c2nc(co2)C(=O)O[C@H](C(C)(C)[C@@H](O)/C=C/C)C\C=C/C(C)=C\C=C/[C@H](OC)Cc2nc(co2)C(=O)O1` [Disorazole A]: the pKd was 4.66. With `C/C=C/[C@H](O)C(C)(C(=O)OC)[C@@H]1C\C=C/C=C/C=C/c2nc(co2)C(=O)O[C@H](C(C)(C(=O)OC)[C@@H](O)/C=C/C)C\C=C/C=C/C=C/c2nc(co2)C(=O)O1` (some centres not stated) [Disorazole Z], the pKd was 4.13.
